Experimental findings from US11667667B2, “Steroid derivative FXR agonist” (Chia Tai Tianqing Pharmaceutical Group Co., Ltd., priority 2016, dated 2023) are described below.

This assay has as its target T1, Glutathione-S-transferase-labeled FXR human protein (Homo sapiens, UniProt Q96RI1).
T1 construct: purchased Invitrogen
T1 sequence (Q96RI1 1-486): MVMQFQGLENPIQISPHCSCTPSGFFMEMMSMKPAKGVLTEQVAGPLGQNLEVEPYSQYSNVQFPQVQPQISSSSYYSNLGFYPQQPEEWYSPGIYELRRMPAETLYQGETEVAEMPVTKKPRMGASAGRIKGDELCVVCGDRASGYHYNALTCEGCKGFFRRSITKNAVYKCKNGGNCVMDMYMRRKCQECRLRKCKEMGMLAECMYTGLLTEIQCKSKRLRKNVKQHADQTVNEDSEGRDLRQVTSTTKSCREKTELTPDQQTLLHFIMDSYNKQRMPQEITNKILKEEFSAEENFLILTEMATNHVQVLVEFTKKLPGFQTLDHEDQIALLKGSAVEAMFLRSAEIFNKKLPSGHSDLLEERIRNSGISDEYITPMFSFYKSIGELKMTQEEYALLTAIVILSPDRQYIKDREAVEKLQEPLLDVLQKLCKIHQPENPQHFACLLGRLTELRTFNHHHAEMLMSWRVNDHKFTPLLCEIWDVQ
The assay is described as follows: FXR biochemical experiment (AlphaScreen, coactivator recruitment). The note with it: for EC50: AlphaScreen, GST-FXR human protein + biotin-labeled steroid receptor coactivator, read-out: FXR enzyme activity EC50; for Emax: ratio of highest signal of the compound to that of the reference compound, read-out: FXR enzyme activity Efficacy. The protocol: FXR Biochemical Experiment Experimental Purpose: The activation effect of the compound on FXR binding reaction was detected by AlphaScreen. […] Protein: Glutathione-S-transferase-labeled FXR human protein (Invitrogen) 2. Co-activator: Biotin-labeled steroid receptor coactivator (Anaspec) 3. […] Compound Dilution: The compound to be tested was prepared as a 40 μM DMSO solution, and then diluted 3-fold to 10 concentration points. The reference compound was prepared as a 400 μM DMSO solution, and then diluted 1.5-fold to 10 concentration points. The diluted DMSO solution was added to the wells of a 384-well plate in a volume of 150 nL per well. 2. […] 4. […] The operation during the experimental process was protected from light. The incubation was performed for 1 hour at room temperature. 5. […] The operation during the experimental process was protected from light. The incubation was performed for 1 hour at room temperature. 6. EC50 test: Envision was used with excitation at 680 nm to read the […] signals at 520-620 nm. 7. Analytical data: The data were analyzed via using Prism 5.0, and the EC50 values of the activation effects of the compounds were calculated.

Each structure is given as a SMILES string.

Consider `CC[C@H]1[C@@H](O)[C@@H]2[C@H](CC[C@]3(C)[C@@H]([C@H](C)CCOc4ccc(C(=O)NS(C)(=O)=O)cn4)CC[C@@H]23)[C@@]2(C)CC[C@@H](O)C[C@@H]12` [Example 27], for which the EC50 stood at 6 nM and the Emax worked out at 212%.
As to `CC[C@H]1[C@@H](O)[C@@H]2[C@H](CC[C@]3(C)[C@@H]([C@H](C)CCOc4ncc(C(=O)O)cc4F)CC[C@@H]23)[C@@]2(C)CC[C@@H](O)C[C@@H]12` [Example 24], the Emax came to 138%.
Turning to `CC[C@H]1[C@@H](OC)[C@@H]2[C@H](CC[C@]3(C)[C@@H]([C@H](C)CCOCC45CC(C(=O)O)(C4)C5)CC[C@@H]23)[C@@]2(C)CC[C@@H](O)C[C@@H]12` [Example 14], the EC50 stood at 730 nM and the Emax was 195%.
`CC[C@H]1[C@@H](O)[C@@H]2[C@H](CC[C@]3(C)[C@@H]([C@H](C)CCCOc4ccc(C(=O)O)cn4)CC[C@@H]23)[C@@]2(C)CC[C@@H](O)C[C@@H]12` [Example 18]: the EC50 worked out at 70 nM and the Emax was determined as 187%.
`CC[C@H]1[C@@H](O)[C@@H]2[C@H](CC[C@]3(C)[C@@H]([C@H](C)CCOc4cnccc4C(=O)O)CC[C@@H]23)[C@@]2(C)CC[C@@H](O)C[C@@H]12` [Example 13]: the EC50 is 390 nM and the Emax is 270%.
On the same counts, the results for `CC[C@H]1[C@@H](O)[C@@H]2[C@H](CC[C@]3(C)[C@@H]([C@H](C)CCN4CCC[C@@H]4C(=O)O)CC[C@@H]23)[C@@]2(C)CC[C@@H](O)C[C@@H]12` [Example 2] are 1460 nM and 114%.
The corresponding values for `CC[C@H]1[C@@H](O)[C@@H]2[C@H](CC[C@]3(C)[C@@H]([C@H](C)CCOc4ccnc(C(=O)O)c4)CC[C@@H]23)[C@@]2(C)CC[C@@H](O)C[C@@H]12` [Example 41] are 80 nM and 127%.
The corresponding values for `CC[C@H]1[C@@H](O)[C@@H]2[C@H](CC[C@]3(C)[C@@H]([C@H](C)CCOc4ccc(C(=O)NCCS(=O)(=O)O)cn4)CC[C@@H]23)[C@@]2(C)CC[C@@H](O)C[C@@H]12` [Example 38] are 20 nM and 210%.
Turning to `CC[C@H]1[C@@H](O)[C@@H]2[C@H](CC[C@]3(C)[C@@H]([C@H](C)CC(=O)Nc4cncc(C(=O)O)c4)CC[C@@H]23)[C@@]2(C)CC[C@@H](O)C[C@@H]12` [Example 42], the EC50 is 1430 nM and the Emax is 121%.
Regarding `CC[C@H]1[C@@H](O)[C@@H]2[C@H](CC[C@]3(C)[C@@H]([C@H](C)CCOc4ccc(C(=O)NS(=O)(=O)C5CC5)cn4)CC[C@@H]23)[C@@]2(C)CC[C@@H](O)C[C@@H]12` [Example 28], the EC50 turned out to be 7 nM and the Emax amounted to 219%.
On the same counts, the results for `CC[C@H]1[C@@H](O)[C@@H]2[C@H](CC[C@]3(C)[C@@H]([C@H](C)CCOc4ccc(C(=O)NS(=O)(=O)C(C)(C)C)cn4)CC[C@@H]23)[C@@]2(C)CC[C@@H](O)C[C@@H]12` [Example 29] are 12 nM and 190%.
For the compound `CC[C@H]1[C@@H](O)[C@@H]2[C@H](CC[C@]3(C)[C@@H]([C@H](C)CCOc4ccc(C(=O)OC)cn4)CC[C@@H]23)[C@@]2(C)CC[C@@H](O)C[C@@H]12` [Example 44], the EC50 was found to be 330 nM and the Emax is 140%.
`CC[C@H]1[C@@H](O)[C@@H]2[C@H](CC[C@]3(C)[C@@H]([C@H](C)CCOc4ccc(C(=O)NC5CC5)cn4)CC[C@@H]23)[C@@]2(C)CC[C@@H](O)C[C@@H]12` [Example 34]: the EC50 worked out at 93 nM and the Emax is 191%.
The corresponding values for `CC[C@H]1[C@@H](O)[C@@H]2[C@H](CC[C@]3(C)[C@@H]([C@H](C)/C=C/c4cccc(C(=O)O)c4)CC[C@@H]23)[C@@]2(C)CC[C@@H](O)C[C@@H]12` [Example 20] are 60 nM and 287%.

Usually EC50 stands for the concentration that produces a half-maximal response.
